According to PMC9003339 (2022):

Tests used:
[1] = test system: ATP aptamer (screened, 32 nt, 5'FAM modified) (DNA, aptamer) TGGCGTCTGCATGCAGGTCGACGCATGCGCCG; test: graphene oxide fluorescence recovery; settings: 5 mM KCl, 100 mM NaCl, 1 mM MgCl2, 50 mM Tris-HCl pH 7.4, 25 °C, aptamer 300 nM
[2] = test system: Classic ATP aptamer (DNA, aptamer) ACCTGGGGGAGTATTGCGGAGGAAGGT; test: graphene oxide fluorescence recovery; settings: 5 mM KCl, 100 mM NaCl, 1 mM MgCl2, 50 mM Tris-HCl pH 7.4, 25 °C, aptamer 300 nM
[3] = test system: Functional chimera sequence (DNA, aptamer) TGGCGTCTGCATGCAGGTCGACGCATGCGCCGCCTGAGCTTAGAT; test: release from graphene oxide, PAGE; settings: 5 mM KCl, 100 mM NaCl, 1 mM MgCl2; 50 mM Tris-HCl pH 7.4, 25 °C; chimera 2 μM, ATP 1 mM
[4] = test system: FAM-labeled functional chimera sequence (DNA, aptamer) TGGCGTCTGCATGCAGGTCGACGCATGCGCCGCCTGAGCTTAGAT; test: fluorescence recovery from graphene oxide; settings: 5 mM KCl, 100 mM NaCl, 1 mM MgCl2; 50 mM Tris-HCl pH 7.4, 25 °C; chimera 2 μM, ATP 1 mM
[5] = test system: ATP aptamer (screened, 32 nt, 5'FAM modified) (DNA, aptamer) TGGCGTCTGCATGCAGGTCGACGCATGCGCCG; test: graphene oxide fluorescence assay, aptamer titrated at fixed ATP; settings: 5 mM KCl, 100 mM NaCl, 1 mM MgCl2, 50 mM Tris-HCl pH 7.4, 25 °C, aptamer 50–500 nM, 1 μL of 100 mM in 200 μL

## Nc1ncnc2c1ncn2[C@@H]1O[C@H](COP(=O)(O)O)[C@@H](O)[C@H]1O
[1]; 1 μL of 100 mM AMP, ATP 4.7-fold higher
  binding: weak
[2]; 1 μL of 100 mM AMP
  binding: yes

## Nc1ncnc2c1ncn2[C@@H]1O[C@H](COP(=O)(O)OP(=O)(O)O)[C@@H](O)[C@H]1O
[1]; 1 μL of 100 mM ADP, ATP 2.4-fold higher
  binding: weak
[2]; 1 μL of 100 mM ADP
  binding: yes

## Nc1ncnc2c1ncn2[C@@H]1O[C@H](COP(=O)(O)OP(=O)(O)OP(=O)(O)O)[C@@H](O)[C@H]1O
[3]
  binding: yes
[2]; 1 μL of 100 mM ATP
  binding: yes
[4]
  binding: yes
[5]
  Kd: 70.61 ± 20.91 nM
